The record followed here is patent US20240342111A1, “ISOMER-SPECIFIC NEUROPROTECTIVE EFFECT OF NATURAL RESERVATROL” (priority 2021, published 2024).

Common to all, as to format: cell-based, rat
The subject of one assay is XRCC1. Briefly: Immunoblot for DNA repair protein XRCC1. The conditions noted are these: 5-50 μM, 4 hours. The source says:
Ac-K56-H3 is a marker of genomic stability, see Driscoll, R., Hudson, A. & Jackson, S. P. Yeast Rtt109 promotes genome stability by acetylating histone H3 on lysine 56. Science 315, 649-652, doi:10.1126/science.1135862 (2007), and DNA damage, see Tjeertes, J. V., Miller, K. M. & Jackson, S. P. Screen for DNA-damage-responsive histone modifications identifies H3K9Ac and H3K56Ac in human cells. EMBO J 28, 1878-1889, doi:10.1038/emboj.2009.119 (2009), and inhibition of PARP1 causes the downregulation of RAD51, see Hegan, D. C. et al. Inhibition of poly(ADP-ribose) polymerase down-regulates BRCA1 and RAD51 in a pathway mediated by E2F4 and p130. […] The western blot images of the protein levels of HPF1 was quantified using ImageJ.
Cultured neurons (DIV 9-10) were washed once with cold 1×PBS and lysed in cell lysis buffer (20 mM Tris-HCl (pH 7.5), 150 mM NaCl, 1 mM Na2EDTA, 1 mM EGTA, 1% Triton, 2.5 mM sodium pyrophosphate, 1 mM beta-glycerophosphate, 1 mM Na3VO4, 1 μg/ml leupeptin supplemented with protease inhibitor). […] Lysates were quantified using Bio-Rad Protein Assay, and an equal amount of protein was loaded onto a 4 to 12% gradient gel (NuPAGE-Invitrogen). […] Quantification for the western blots was done using ImageJ (Version 1.53c).

The next assay deals with PARP1. Briefly: Immunoblot for auto-PARylation of PARP1. The conditions noted are these: 15 minutes. For orientation: In western blotting, separated proteins are transferred to a membrane and probed.
Another assay relates to γ-H2AX foci. Briefly: Immunostaining of DNA damage marker pSer139-H2AX (γ-H2AX) foci. The conditions noted are these: 24 hours; for Aβ-mediated accumulation of γ-H2AX foci: 50 μM in combination with Aβ 50 nM; for γ-H2AX foci: alone, 50 μM.
The subject of another assay is TyrRS. Put plainly: Immunostaining of neuronal TyrRS under neurotoxic agents (NMDA, MPP+). The conditions noted are these: 50 μM in combination with 50 μM NMDA or 100 μM MPP+, 4 hours.
The subject of the next assay is 8-oxo-2′-dG. Put plainly: Quantification of 8-oxo-2′-dG (oxidation level of neuronal DNA). The conditions noted are these: 50 μM, 16 hours. The source says:
Although Aβ exacerbates neuronal DNA damage through an unknown mechanism, see Suberbielle, E. et al. Physiologic brain activity causes DNA double-strand breaks in neurons, with exacerbation by amyloid-beta. […] Elife 7, doi:ARTN e34334 10.7554/eLife.34334 (2018), and (see FIG. 7 at (b)). […] Mol Cell 65, 932-940 e936, doi:10.1016/j.molcel.2017.01.003 (2017), in a time-dependent manner (see FIG. 7 at (c)). […] Representative immunoblots and quantification for the auto-PARylation level of PARP1 after the siRNA knockdown of TyrRS.

`Oc1ccc(/C=C\c2cc(O)cc(O)c2)cc1` [cis-RSV, cis-resveratrol]: the XRCC1 protein levels result in the assay with XRCC1 is on record as “upregulated them”. Besides, the “auto-PARylation of PARP1” value in the assay with PARP1 (cis-RSV) was “stimulated the auto-PARylation of PARP1”. Further, in the assay on γ-H2AX foci, the “Aβ-mediated accumulation of γ-H2AX foci” value is recorded as “rescued A β-mediated accumulation of γ-H2AX foci” and the γ-H2AX foci entry is “downregulated the accumulation of γ-H2AX foci”. Moreover, the “neurotoxicity-mediated downregulation of neuronal TyrRS” value with TyrRS was “protected against the downregulation of neuronal TyrRS”. For the same molecule, in the assay with 8-oxo-2′-dG, the “levels of 8-oxo-dG” value is “downregulated both the protein levels of OGG1 and the levels of 8-oxo-dG”.
For `Oc1ccc(/C=C/c2cc(O)cc(O)c2)cc1` [trans-RSV, trans-resveratrol], the XRCC1 protein levels entry in the assay with XRCC1 is listed as “downregulated the protein levels”. In addition, the “auto-PARylation of PARP1” value with PARP1 (higher dose ≥25 μM) is recorded as “downregulated the auto-PARylation of PARP1”. Also, the “auto-PARylation of PARP1” value with PARP1 (low dose 5 μM) was “stimulated the auto-PARylation of PARP1”. In the assay on γ-H2AX foci, the “Aβ-mediated accumulation of γ-H2AX foci” value is “exacerbated the accumulation of γ-H2AX foci” and the γ-H2AX foci result was “caused the accumulation of γ-H2AX foci”. For the same molecule, the “neurotoxicity-mediated downregulation of neuronal TyrRS” value with TyrRS is given as “exacerbated the downregulation”. Besides, the “levels of 8-oxo-dG” value with 8-oxo-2′-dG is “upregulated the levels of 8-oxo-2′-deoxyguanosine (8-oxo-dG)”.
